This note sets out measurements from patent EP0897923A1, “BENZOQUINOLIZINE DERIVATIVES AND MEDICINAL COMPOSITIONS” (priority 1996, dated 1997).

Marks after values point to notes of the source that are not given here.

Common to all, as to assay type: in vivo
Data set [1] relates to SD rats. The data set can be described thus: Effect on an IBS model (1): wrap-restraint stress, weight of fecal pellets, subcutaneous administration. The conditions noted are these: 3 mg/kg subcutaneously 30 minutes before wrap-restraint stress, weight of fecal pellets in one hour, male SD rats. The method, then:
(§1) Six-week-old male SD rats, non-fasted, were used in groups of 8 individuals. In accordance with the method of Williams et al. (Gastroenterology, 1988; 94:611-621), animals in the control group and treatment groups were loaded with a wrap-restraint stress while those in the normal group were not loaded and weight (g) of fecal pellets in the subsequent one-hour period was determined. In the treatment groups, a predetermined dose of the corresponding test drug was administered subcutaneously 30 minutes before stress loading. The inhibition rate (%) was calculated by means of the following equation. Inhibition rate = [(C-D)/(C-N)] x 100 [formula] where C represents the weight of the fecal pellets in the control group, D represents the weight of the fecal pellets in the treatment group, and N represents the weight of the fecal pellets in the normal group. Statistical significance of the treatment group versus the control group was tested by Dunnett's multiple comparison.

Data set [2] relates to SD rats. Put plainly: Effect on an IBS model (2): wrap-restraint stress, weight of fecal pellets, oral administration. Particulars: for Inhibition (%) vs. control: weight of fecal pellets in one hour, male SD rats; for defecation accelerated by stress: result in words, summary of Test Examples 2 and 3, oral dose levels 10 and 30 mg/kg. How it is done: as §1, with “(g) of the fecal pellets” for “(g) of fecal pellets”, “was administered orally 60 minutes before” for “was administered subcutaneously 30 minutes before”, “stress loading. As reference control drugs, N-methyl-N-[(2RS,11bSR)-1,3,4,6,7,11b-hexahydro-2H-benzo[a]quinolizin-2-yl]propanesulfonamide hydrochloride (hereinafter referred to as Compound A) and N-(2-methanesulfonamidoethyl)-N-[(2RS,11bSR)-1,3,4,6,7,11b-hexahydro-2H-benzo[a]quinolizin-2-yl]benzenesulfonamide hydrochloride (hereinafter referred to as compound B), both of which are described in Japanese Laid-open S62-67031 as having gastrointestinal peristalsis-modulating activity were used. The inhibition” for “stress loading. The inhibition”

Data set [3] relates to SD rats. The data set can be described thus: Effect on an IBS model (3): water avoidance stress, number of fecal pellets, oral administration. Particulars: number of fecal pellets in one hour, male SD rats. How it is done: Six-week-old male SD rats were used in groups of 8 individuals. In accordance with the method of Enck et al. (Gut, 1989; 30:455-459), animals in the control group and treatment groups were loaded with water avoidance stress, while those in the normal groups were not loaded and the number of fecal pellets during the subsequent one-hour period was determined. In the treatment groups, a predetermined dose of the corresponding test drug was administered orally 60 minutes before stress loading. As reference control drugs, Compound A and Compound B mentioned above were used. The inhibition rate (%) was calculated by means of the following equation. Inhibition rate (%) = [(NC-ND)/(NC-NN)] x 100 [formula] where NC represents the number of the fecal pellets in the control group, ND represents the number of the fecal pellets in the treatment group, and NN represents the number of the fecal pellets in the normal group. Statistical significance of the treatment group versus the control group was tested by Dunnett's multiple comparison.

Another data set relates to ddY mice. The data set can be described thus: Acute toxicity test. The conditions noted are these: fasted male ddY mice, deaths during one week. How it is done: Six-week-old male ddY mice were used in groups of 5 individuals. The animals were fasted from the previous day (16-18 hours before the experiment) and a predetermined dose of the compound of the invention was administered orally. The number of deaths during the subsequent one-week period was investigated.

The mark [4] stands for this setting: 10 mg/kg orally 60 minutes before wrap-restraint stress, hydrochloride.
Setting [5] is: 30 mg/kg orally 60 minutes before wrap-restraint stress.
[6] abbreviates: 30 mg/kg orally 60 minutes before water avoidance stress.
[7] abbreviates: 10 mg/kg orally 60 minutes before wrap-restraint stress.

In the case of `COc1ccc2c(c1)CCN1CC[C@@H](N(C)S(C)(=O)=O)C[C@@H]21.Cl` (racemic) [Compound No. 1, N-Methyl-N-[(2RS,11bSR)-9-methoxy-1,3,4,6,7,11b-hexahydro-2H-benzo[a]quinolizin-2-yl]methanesulfonamide hydrochloride], the “Inhibition (%) vs. control” value is recorded as 97.7** % with SD rats [1] (hydrochloride), 53.2* % in the data set on SD rats [2] (setting [4]), 96.6** % in the data set with SD rats [2] (setting [5]) and 81.8* % in the data set on SD rats [3] (setting [6]). The Dead/Total in the data set with ddY mice (100 mg/kg orally) is recorded as 0/5.
On to `COc1ccc2c(c1)CCN1CC[C@@H](N(C)S(=O)(=O)c3ccccc3)C[C@@H]21.Cl` (racemic) [Compound No. 7, N-methyl-N-[(2RS,11bSR)-9-methoxy-1,3,4,6,7,11b-hexahydro-2H-benzo[a]quinolizin-2-yl]benzenesulfonamide hydrochloride], for which the “Inhibition (%) vs. control” value in the data set with SD rats [1] is reported as 76.6** %.
With `CS(=O)(=O)NCCN([C@@H]1CCN2CCc3ccccc3[C@@H]2C1)S(=O)(=O)c1ccccc1.Cl` (racemic) [Compound B, N-(2-methanesulfonamidoethyl)-N-[(2RS,11bSR)-1,3,4,6,7,11b-hexahydro-2H-benzo[a]quinolizin-2-yl]benzenesulfonamide hydrochloride, reference compound], the results for the “Inhibition (%) vs. control” value in the data set with SD rats [2] (setting [7]), in the data set with SD rats [2] (setting [5]) and with SD rats [3] (setting [6]) were -4.7%, -30.0% and -58.3%, respectively. For the same compound, in the data set with SD rats [2], the “defecation accelerated by stress” value was “did not inhibit defecation accelerated by stress”.
In the case of `COc1ccc2c(c1)CCN1CC[C@@H](N(C)S(=O)(=O)c3cc(OC)ccc3OC)C[C@@H]21.Cl` (racemic) [Compound No. 14, N-methyl-N-[(2RS,11bSR)-9-methoxy-1,3,4,6,7,11b-hexahydro-2H-benzo[a]quinolizin-2-yl]-2,5-dimethoxybenzenesulfonamide hydrochloride], the “Inhibition (%) vs. control” value in the data set with SD rats [1] is recorded as 75.6** %.
Take `COc1ccc2c(c1)CCN1CC[C@@H](N(C)S(C)(=O)=O)C[C@@H]21.Cl` [Compound No. 18, N-Methyl-N-[(2R,11bS)-9-methoxy-1,3,4,6,7,11b-hexahydro-2H-benzo[a]quinolizin-2-yl]methanesulfonamide hydrochloride]: the “Inhibition (%) vs. control” value in the data set with SD rats [1] (hydrochloride) was 96.6** %; in the data set on SD rats [2] (setting [4]), 91.1** %; with SD rats [3] (3 mg/kg orally 60 minutes before water avoidance stress), 72.4* %; in the data set on SD rats [3] (10 mg/kg orally 60 minutes before water avoidance stress) it was 82.9** %. Moreover, in the data set with ddY mice (250 mg/kg orally), the Dead/Total is listed as 0/5.
As for `COc1ccc(S(=O)(=O)N(C)[C@@H]2CCN3CCc4cc(OC)ccc4[C@@H]3C2)cc1.Cl` (racemic) [Compound No. 6, N-Methyl-N-[(2RS,11bSR)-9-methoxy-1,3,4,6,7,11b-hexahydro-2H-benzo[a]quinolizin-2-yl]-4-methoxybenzenesulfonamide hydrochloride], the “Inhibition (%) vs. control” value with SD rats [1] was 86.2** %. Further, the Dead/Total with ddY mice (100 mg/kg orally) is 0/5.
Regarding `CCCS(=O)(=O)N(C)[C@@H]1CCN2CCc3ccccc3[C@@H]2C1.Cl` (racemic) [Compound A, N-methyl-N-[(2RS,11bSR)-1,3,4,6,7,11b-hexahydro-2H-benzo[a]quinolizin-2-yl]propanesulfonamide hydrochloride, reference compound], the results for the “Inhibition (%) vs. control” value in the data set on SD rats [2] (setting [7]), in the data set with SD rats [2] (setting [5]) and in the data set with SD rats [3] (setting [6]) were -1.2%, 1.4% and -20.7%, respectively. Also, the “defecation accelerated by stress” value in the data set on SD rats [2] is “did not inhibit defecation accelerated by stress”.
As for `CCN([C@@H]1CCN2CCc3cc(OC)ccc3[C@@H]2C1)S(C)(=O)=O.Cl` [Compound No. 21, N-Ethyl-N-[(2R,11bS)-9-methoxy-1,3,4,6,7,11b-hexahydro-2H-benzo[a]quinolizin-2-yl]methanesulfonamide hydrochloride], the “Inhibition (%) vs. control” value is on record as 64.6** % with SD rats [2] (setting [7]) and 92.6** % with SD rats [2] (setting [5]). Further, the Dead/Total in the data set on ddY mice (250 mg/kg orally) is given as 0/5.
`CCS(=O)(=O)N(C)[C@@H]1CCN2CCc3cc(OC)ccc3[C@@H]2C1.Cl` [Compound No. 20, N-Methyl-N-[(2R,11bS)-9-methoxy-1,3,4,6,7,11b-hexahydro-2H-benzo[a]quinolizin-2-yl]ethanesulfonamide hydrochloride]: the “Inhibition (%) vs. control” value in the data set on SD rats [2] (setting [7]) was 69.4** %; in the data set on SD rats [2] (setting [5]), 88.9** %.
With `COc1ccc2c(c1)CCN1CC[C@@H](N(C)S(=O)(=O)N(C)C)C[C@@H]21.Cl` (racemic) [Compound No. 16, N,N-Dimethyl-N'-[(2RS-11bSR)-9-methoxy-1,3,4,6,7,11b-hexahydro-2H-benzo[a]quinolizin-2-yl]-N'-methylsulfamide hydrochloride], the “Inhibition (%) vs. control” value is 73.3** % in the data set with SD rats [2] (setting [7]) and 91.7** % in the data set with SD rats [2] (setting [5]). The Dead/Total in the data set on ddY mice (300 mg/kg orally) is on record as 0/5.
For `COc1ccc2c(c1)CCN1CC[C@@H](N(C)S(=O)(=O)c3ccc(F)cc3)C[C@@H]21.Cl` (racemic) [Compound No. 13, N-methyl-N-[(2RS,11bSR)-9-methoxy-1,3,4,6,7,11b-hexahydro-2H-benzo[a]quinolizin-2-yl]-4-fluorobenzenesulfonamide hydrochloride], the “Inhibition (%) vs. control” value in the data set with SD rats [1] is 72.4** %.
